From US20080242685A1, “Chemical Compounds” (Smithkline Beecham Corporation, priority 2005, published 2008)

Biological target: T1, Recombinant human IKKβ (residues 1-737) (Homo sapiens, UniProt O14920)
T1 construct: Recombinant human IKKβ (residues 1-737); GST (C); made in house
T1 sequence (O14920 1-737): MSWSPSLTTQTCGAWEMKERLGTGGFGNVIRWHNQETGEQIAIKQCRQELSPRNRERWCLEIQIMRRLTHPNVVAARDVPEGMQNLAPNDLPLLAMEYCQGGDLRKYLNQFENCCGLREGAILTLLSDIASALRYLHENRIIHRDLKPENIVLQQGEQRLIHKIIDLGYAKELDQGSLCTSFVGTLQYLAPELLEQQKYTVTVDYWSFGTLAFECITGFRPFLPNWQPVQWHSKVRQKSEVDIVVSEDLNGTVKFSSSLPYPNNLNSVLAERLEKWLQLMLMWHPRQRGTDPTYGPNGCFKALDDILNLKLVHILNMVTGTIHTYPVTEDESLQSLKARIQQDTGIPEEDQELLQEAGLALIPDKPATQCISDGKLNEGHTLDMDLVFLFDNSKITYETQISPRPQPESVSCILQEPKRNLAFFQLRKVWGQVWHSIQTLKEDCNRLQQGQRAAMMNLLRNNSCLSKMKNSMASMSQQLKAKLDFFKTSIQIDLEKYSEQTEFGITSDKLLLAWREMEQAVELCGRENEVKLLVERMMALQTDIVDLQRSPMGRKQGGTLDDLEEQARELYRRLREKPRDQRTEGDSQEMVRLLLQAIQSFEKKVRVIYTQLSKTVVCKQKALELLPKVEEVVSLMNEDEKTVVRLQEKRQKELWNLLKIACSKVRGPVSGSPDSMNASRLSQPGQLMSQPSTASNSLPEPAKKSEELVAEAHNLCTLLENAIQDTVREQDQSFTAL
Assay: IKK2 Assay (TR-FRET)
Type: biochemical
Settings: IKK2 5 nM, GST-IκBα substrate 25 nM, ATP 1 μM, 30 minutes at room temperature, read-out: pIC50 against IKK2 (converted)
Procedure: Recombinant human IKKβ (residues 1-737) was expressed in baculovirus as a C-terminal GST-tagged fusion protein, and its activity was assessed using a time-resolved fluorescence resonance energy transfer (TR-FRET) assay. Briefly, IKK2 (5 nM final) diluted in assay buffer (50 mM HEPES, 10 mM MgCl2, 1 mM CHAPS pH 7.4 with 1 mM DTT and 0.01% w/v BSA) was added to wells containing various concentrations of compound or DMSO vehicle (3% final). The reaction was initiated by the addition of GST-IκBα substrate (25 nM final)/ATP (1 μM final), in a total volume of 30 μl. The reaction was incubated for 30 minutes at room temperature, then terminated by the addition of 15 μl of 50 mM EDTA. Detection reagent (15 μl) in buffer (100 mM HEPES pH 7.4, 150 mM NaCl and 0.1% w/v BSA) containing antiphosphoserine-IκBα-32/36 monoclonal antibody 12C2 (Cell Signalling Technology, Beverly Mass., USA) labelled with W-1024 europium chelate (Wallac OY, Turku, Finland), and an APC-labelled anti-GST antibody (Prozyme, San Leandro, Calif., USA) was added and the reaction was further incubated for 60 minutes at room temperature. The degree of phosphorylation of GST-IκBα was measured using a Packard Discovery plate reader (Perkin-Elmer Life Sciences, Pangbourne, UK) as a ratio of specific 665 nm energy transfer signal to reference europium 620 nm signal.

IC50, ≤ 10 µM:
NC(=O)c1nc(-c2ccccc2)cc2c(C3CCNCC3)c[nH]c12 [Example 7, 5-phenyl-3-(4-piperidinyl)-1H-pyrrolo[2,3-c]pyridine-7-carboxamide]
CCS(=O)(=O)N1CCC(c2c[nH]c3c(C(N)=O)nc(-c4ccccc4)cc23)CC1 [Example 8, 3-[1-(ethylsulfonyl)-4-piperidinyl]-5-phenyl-1H-pyrrolo[2,3-c]pyridine-7-carboxamide]
NC(=O)c1nc(-c2ccccc2)cc2cc[nH]c12 [Example 14, 5-phenyl-1H-pyrrolo[2,3-c]pyridine-7-carboxamide]
CC(C)(C)OC(=O)N1CC=C(c2c[nH]c3c(C(N)=O)nc(-c4ccccc4)cc23)CC1 [Example 5, 1,1-dimethylethyl 4-[7-(aminocarbonyl)-5-phenyl-1H-pyrrolo[2,3-c]pyridin-3-yl]-3,6-dihydro-1(2H)-pyridinecarboxylate]
CC(C)(C)OC(=O)N1CCC(c2c[nH]c3c(C(N)=O)nc(-c4ccccc4)cc23)CC1 [Example 6, 1,1-dimethylethyl 4-[7-(aminocarbonyl)-5-phenyl-1H-pyrrolo[2,3-c]pyridin-3-yl]-1-piperidinecarboxylate]
